Measured values from US20190336579A1, “COMPOSITIONS AND METHODS TO INDUCE TARGETED APOPTOSIS BY MODULATING PROTEIN TYROSINE PHOSPHATASE 13 (PTPN13)” (National Jewish Health, priority 2010, published 2019).

What was measured:
PTPN13 protein = PTPN13 protein expression by Western blot in lung fibroblasts; type: cell-based, human; conditions: normal, fibrotic and MRC5 fibroblasts; TNF-α 10 ng/ml, IFN-γ 50 U/ml; 36 hours
Procedure: (§1) To assess the effects of these cytokines on PTPN13 expression, non-diseased normal human lung fibroblasts (NHLF), fibrotic human lung fibroblasts (FHLF) and a fetal lung fibroblast cell line, MRC5 cells, were treated with TNF-α (10/ng/ml), IFN-γ (50 U/ml) or with both cytokines for 6 hours. PTPN13 expression was measured by quantitative PCR (FIG. 2A). The primary lung fibroblasts from normal and fibrotic lung had equivalent levels of PTPN13 expression to the MRC5 lung fibroblast cell line. […] Treatment with TNF-α alone caused a 40% decrease in PTPN13 expression. Combined exposure to TNF-α and IFN-γ decreased PTPN13 mRNA expression by 80%. Protein lysates from normal, fibrotic and MRC5 fibroblasts treated for 36 hours with TNF-α (10/ng/ml), IFN-γ (50 U/ml) or with both cytokines were then analyzed for PTPN13 expression. […]
In one exemplary method, to assess whether PTPN13 expression prevents Fas-induced apoptosis, PTPN13 expression was knocked-down using siRNA. […] Apoptosis was assayed by quantifying activation of caspase-3 and caspase-8 (FIG. 3C).
FIG. 3: Decreased PTPN13 expression sensitizes fibroblasts to Fas-induced apoptosis. […] PTPN13 expression was quantified by western blot analysis and densitometry was performed. […] Fas activating antibody (250 ng/ml) (Fas activating antibody) or PBS (unstimulated) was added for 2 hours before analyzing Caspase-8 activation by a fluorescence-based assay. […]

PTPN13 mRNA = PTPN13 mRNA expression by quantitative PCR in lung fibroblasts; type: cell-based, human; conditions: NHLF, FHLF and MRC5 cells; TNF-α 10 ng/ml, IFN-γ 50 U/ml; 6 hours; compared to untreated cells
Procedure: as §1
FIG. 2: TNF-α and IFN-γ decrease PTPN13 expression. […] Top panel is a quantitative RT-PCR analysis of PTPN13 mRNA lower panel is a Western blot analysis for PTPN13 protein. […] Caspase-8 was measured using a fluorescence based assay.
Total RNA was obtained from 1×10^6 MRC5 cells using the Qiagen RNA Miniprep Kit (Qiagen) following the manufacturer's instructions. […] The fluorescence values of the threshold cycles were collected and normalized to GAPDH. Data are expressed as the relative change in mRNA expression compared to the untreated control.

[1] = Bleomycin murine model of fibrosis, mortality; type: in vivo, mice; conditions: 2.5 U/kg bleomycin into the trachea
Procedure: To assess the effect of PTPN13 on development of fibrosis in vivo, we used a murine model of fibrosis in a PTPN13−/− mouse. The PTPN13−/− mouse has been characterized by Grusby to have abnormal STAT4 signaling which leads to augmented skewing toward TH1 or TH2 phenotypes. 2.5 U/kg bleomycin was administered directly into the tracheas of PTPN13−/− mice along with wildtype controls. […] Due to drastic weight decreases in the wildtype mice, two weeks was chosen as the end time point. […] Of the 20 wildtype mice treated with bleomycin, 11 (55%) died before two weeks as compared to the PTPN13−/− mice where three of the 20 (15%) died. Saline had no effect on mortality. Then static compliance was measured. […] Collagen content was measured in the lung using a hydroxyproline assay. […] To determine a possible cause for the decreased static compliance in the PTPN13−/− mice, we also measured other markers of lung disease, such as cellular infiltration and capillary leak. We measured the cellularity of the bronchoalveolar fluid (BALF). […] Capillary leak was determined by albumin present in the BALF (FIG. 6F). […] To validate these findings, stereology was performed on lung sections to quantify presence of collagen and diseased areas. […] Percentage of diseased lung was also measured by stereology. […]
FIG. 6: Deficiency of PTPN13−/− Leads to Decreased Bleomycin-induced Lung Fibrosis. […] Collagen content as measured by stereology. […]

IFN-γ: Recombinant human IFN-γ purchased from R&D Systems
PTPN13 protein expression (Western blot) (PTPN13 protein): not decreased | decrease in PTPN13 mRNA expression (PTPN13 mRNA): minimal decrease

TNF-α
PTPN13 protein expression (Western blot) (PTPN13 protein): decreased | decrease in PTPN13 mRNA expression (PTPN13 mRNA): 40%

bleomycin
mortality before two weeks ([1]; PTPN13−/− mice, three of 20 died): 15% | mortality before two weeks ([1]; wildtype mice, 11 of 20 died): 55%
